In patent US6013795A, “Alpha-branched fluoroalkylcarbonyl fluorides and their derivatives” (3M Innovative Properties Company, priority 1996, dated 2000):
“Also recorded” adds a separate entry of the source.

What was measured:
[1] = thermal degradation of neat perfluorocarboxylate salts by thermogravimetric analysis; format: physicochemical; settings: TGA 10° C./min, nitrogen
Text: Thermal degradation measurements were made on a series of neat perfluorocarboxylate salts, including several α-branched open chain structures (Examples N2-N9), a primarily linear open chain structure (Example N10--Fluorad™ FC-143 Fluorochemical Surfactant, commercially available from 3M Company, St. Paul, Minn.), and a closed chain (i.e., cyclic) structure (Example N11- made by the electrochemical fluorination of benzoic acid and hydrolysis in the presence of KOH, as described in U.S. Pat. No. 2,567,011 (Diesslin et al.)).
The perfluorocarboxylate salts were tested using a Perkin-Elmer TGA 7 thermogravimetric analysis apparatus and a salt sample size of approximately 5 mg, a heating rate of 10° C./min, and a nitrogen gas flow rate of 40-45 mL/min. Using the TGA 7 software, the following temperatures were recorded: (1) the onset temperature of decomposition, (2) the temperature at which 50% of the sample weight was lost, and (3) the temperature at which 90% of the sample weight was lost.

[2] = hydrolytic stability of esters stirred with concentrated aqueous ammonium hydroxide; format: physicochemical; settings: 2 days or comparable conditions
Text: The acrylate and methacrylate esters from Examples D1-D11 were fully recoverable with essentially no degradation after being stirred with concentrated aqueous ammonium hydroxide for a period of 2 days.

[3] = surface tension of aqueous surfactant solutions and critical micelle concentration (K-12 Processor Tensiometer); format: physicochemical; settings: carboxylate salts, deionized water; Table 5
Text: Critical Micelle Concentration (CMC): The critical micelle concentration is defined as the concentration at which further surface tension is no longer lowered with increasing levels of surfactant. […] Surface tension is then plotted vs. log concentration and the data points are connected. The resulting curve has a nearly horizontal flat portion at concentrations above the CMC and has a negative steep slope at concentrations below the CMC. The CMC is defined as the lowest surfactant concentration in the horizontal flat portion of the curve.
(§1) Then the critical micelle concentration (CMC) was determined for each surfactant.
as §1

[4] = degradation of aqueous salt solution stored at room temperature; format: physicochemical; settings: same 1 year period
Procedure: The α-branched open chain ammonium salt compounds from Examples N3-N6 were dissolved in deionized water at a concentration of 5% by weight (0.5 g ammonium salt in 10 mL water) and were stored at room temperature.

[5] = emulsion polymerization of vinylidene fluoride and hexafluoropropylene with surfactant as emulsifier
Text: The following procedure was used to evaluate C7 F15 CF(CF3)COO^- NH4^+ (from Ex. M1) as an emulsifier to copolymerize hexafluoropropylene (HFP) and vinylidene fluoride.
A 1 gallon, vertically agitated stainless steel reactor with pressure and temperature controls was evacuated and twice purged with nitrogen. Using an isolated vacuum, a solution comprised of 2 g of ammonium persulfate (initiator) and 6 g of dipotassium phosphate dissolved in 2800 g of deionized water was introduced into the reactor. The remaining vacuum on the reactor was vented with nitrogen, and the solution was degassed twice under agitation using alternate vacuum and nitrogen purges. […] The reactor was vented with nitrogen, the solution was agitated very briefly, and the reactor was evacuated of nitrogen and isolated. Then the reactor was vented with hexafluoropropylene monomer to a pressure of approximately 10 psig (1280 torr total pressure), and the temperature of the batch was raised to 72° C. with high agitation. Maintaining the temperature at 72° C., a monomer mixture of 60% (wt) of vinylidene fluoride and 40% (wt) hexafluoropropylene was fed from a tared gas cylinder into the head space of the reactor to maintain a reactor pressure of 130 psig (7480 total pressure). After feeding in about 1 kg of monomer blend (approximately 3.75 hours duration), the introduction of monomer was ceased, the reaction was allowed to cool to room temperature, and any residual unreacted monomer was vented.
The resulting latex polymer was drained from the reactor, and percent solids of the latex was determined to be 25% by weight as measured by drying 10 g of latex in a forced air oven for 16 hours at 105° C.
The reactor body was separated from the reactor head, and a visual inspection of the reactor was made to determine the amount of coagulated polymer in the reactor (the amount should be minimal in a good polymerization reaction). A qualitative rating was assessed, ranging from "none" to "little" to "some."
The latex stability was determined by half filling a 16 oz (450 mL) jar with latex and shaking several hours in the horizontal position, quantitatively rating the latex after shaking using a 3-point scale ranging from 0=very stable to 3=unstable.
Particle size in the latex was determined using 90° scattering on a Coulter sub-micron particle size analyzer.
Degree of foaming was rated using the following qualitative scale: 0=not foamy, 1=slightly foamy, 2=moderately foamy, and 3=very foamy.
In Example P2, the same experiment was run as in Example P1, except that the concentration of C7 F15 CF(CF3)COO^- NH4^+emulsifier was raised to 3500 ppm, the reaction time decreased from 3.75 to 3.5 hours, and the reaction temperature increased from 72° C. to 78° C.
In Comparative Examples P3-P6, the same experiment was run as in Example P1, except that C8 F17 SO2 N(C2 H5)CH2 COO^- K^+ (Fluorad™ FC-128 Fluorochemical Surfactant, available from 3M Company, St. Paul, Minn.), C7 F15 COO^- H4 N^+ (Fluorad™ FC-143 Fluorochemical Surfactant), and Surflon™ S111S Fluorochemical Surfactant (believed to be nominally telomer-based n-C9 F19 COO^- H4 N^+, commercially available from Asahi Glass Corp., Japan) were substituted for C7 F15 CF(CF3)COO^- H4 N^+ emulsifier.
In Comparative Example P7, the same experiment was run as in Example P1, except that no emulsifier was used.

rats = assay: acute LD50, one-time feeding study of rats; format: in vivo, rat; settings: for toxicity rating: acute
Procedure: Acute LD50 measurements for a one-time feeding study of rats were determined over a 21 day period for both the α-branched perfluorocarboxylate salt, C7 F15 CF(CF3)COO^- NH4^+, and its straight chain isomer, CF3 (CF2)8 COO^- NH4^+.

rat = assay: exhaust gas monitoring of dosed rat in uptake desiccator chamber; format: in vivo; settings: 500 mg/kg
Procedure: Additional biological testing of C7 F15 CF(CF3)COO^- NH4^+ in rats was conducted using the following test apparatus. An uptake desiccator jar chamber was designed with top and bottom portions, the top portion equipped with an inlet port, an outlet port, oxygen monitor and pressure gage. An oxygen gas tank supplied oxygen into the inlet port, and the oxygen level in the chamber was maintained at a normal ambient level as measured by the oxygen monitor and pressure gage. The outlet port was connected in series with a carbon dioxide scrubber and particulate filter, which in turn was connected to a loop containing a stainless steel bellows pump operating at about 2 L/min. Most of the gas in the loop was recycled into the inlet port, but about 100 mL/min was directed through a secondary loop to a gas chromatograph equipped with a 0.5 mL gas sampling loop.
A rat dosed at 500 mg/kg was placed in the bottom portion of the chamber, the top portion was attached, and the assembled chamber was placed in an ice-filled pan to allow for the condensation of water. The oxygen flow was started, and the exhaust gases were monitored for the presence of CF3 CF=CF(C6 F13) and C7 F15 CFHCF3, aqueous degradation products of C7 F15 CF(CF3)COOH, using known standards of this olefin and hydride in the gas chromatograph. […] After 24 minutes, one slight chromatographic peak was noted, corresponding to the monohydride. After 92 minutes, the peak became noticeably larger and a second peak formed, corresponding to the olefin.

[6] = Chem. Res. Toxicol. 1996, 9, 689-95; cited from earlier work

## O=C(O)C1(F)C(F)(F)C(F)(F)C(F)(F)C(F)(F)C1(F)F [U.S. Pat. No. 2,567,011]
[1]
  Onset temperature of decomposition: 100 °C
  Temperature for 50% loss: 110 °C
  Temperature for 90% loss: 120 °C

## C=CC(=O)OCCOC(=O)C(F)(F)C(F)(F)C(F)(F)C(F)(F)C(F)(F)C(F)(F)C(F)(F)F [C7 F15 COOCH2 CH2 OCOCH=CH2]
[2]
  hydrolytic stability: readily hydrolyzed

## O=C(O)C(F)(C(F)(F)F)C(F)(F)C(F)(F)C(F)(F)C(F)(F)C(F)(F)F (stereo not shown) [Example M28, C5 F11 CF(CF3)COO^- Na^+]
[1]; listed as N8
  Temperature for 50% loss: 250 °C

## O=C(O)C(F)(F)C(F)(F)C(F)(F)C(F)(F)C(F)(F)C(F)(F)C(F)(F)F [FC-143, C7 F15 COO^- H4 N^+]
[3]
  CMC: 8000 ppm
  Surf. Tens. at the CMC: 21.5 dynes/cm
[4]
  degradation over 1 year (would show): no signs of degradation
[5]; 350 ppm emulsifier
  Latex Stability: 2

## O=C(O)C(F)(C(F)(F)F)C(F)(F)C(F)(F)C(F)(F)C(F)(F)C(F)(F)C(F)(F)C(F)(F)F (stereo not shown) [Example M14, C7 F15 CF(CF3)COO^- H4 N^+]
[3]
  CMC: 2500 ppm
  Surf. Tens. at the CMC: 16.5 dynes/cm
rats; listed as C7 F15 CF(CF3)COO^- NH4^+
  toxicity rating: relatively low toxicity; also recorded: only slightly toxic
rats; one-time feeding
  time after which rats began regaining weight: 3 days
  time of deaths from toxic doses: 2 to 3 days
  wasting syndrome: No wasting syndrome was noted
[5]; 350 ppm emulsifier
  Latex Stability: 2
[5]; 3500 ppm emulsifier
  Latex Stability: 0
rat
  post-exposure observation of toxicity: no evidence of toxicity (death) or evidence of wasting syndrome
  time to second peak (olefin) in exhaust gas; monohydride peak noticeably larger: 92 min
  time to slight peak of monohydride in exhaust gas: 24 min
rat; after 217 minutes
  olefin and monohydride peaks in exhaust gas: both peaks became significantly larger
rat; initially
  olefin or hydride in exhaust gas: no olefin or hydride were detected

## O=C(O)C(F)(F)C(F)(F)C(F)(F)C(F)(F)C(F)(F)C(F)(F)C(F)(F)C(F)(F)C(F)(F)F [C9 F19 COO^- NH4^+, reference compound]
rats; LD50 based
  toxicity relative to the α-branched isomer: ca. 10 times
rats
  toxicity rating: moderately toxic
rats; one-time feeding
  wasting syndrome: Wasting syndrome was observed
[6]
  toxicity: moderately toxic

## CCN(CC(=O)O)S(=O)(=O)C(F)(F)C(F)(F)C(F)(F)C(F)(F)C(F)(F)C(F)(F)C(F)(F)C(F)(F)F [Fluorad ™ FC-128, C8 F17 SO2 N(C2 H5)CH2 COO^- K^+]
[5]; 100 ppm emulsifier
  Latex Stability: 2
[5]; 350 ppm emulsifier
  Latex Stability: 0
